Residues, ends and D or L forms follow the SMILES beside them.
Columns and labels:
Format in all cases: biochemical
human thrombin = human thrombin (Homo sapiens, UniProt P00734); assay: Inhibition of human thrombin (aIIa), splitting of chromogenic substrate S 2238; settings: measured after 90 minutes, expressed as the molar concentration which inhibited the end absorbance by 50%
Method: (§1) The inhibition of human thrombin was investigated by continuously monitoring the splitting of the chromogenic substance S 2238 (N-D-Phe-L-pipecolyl-L-Arg-p-nitro-anilide 2 HCl) in the absence and in the presence of 3, 1, 0.3, 0.1 and 0.03 mM of the compound investigated. These measurements were performed with the help of a kinetic microtiter plate reader. From these measurements the end absorbances were calculated after 90 minutes. Based on these total scores, an IC50 of the various compounds investigated is expressed as the molar concentration which inhibited the end absorbance by 50%. IC50 values for aXa-activity were investigated in the same way by using the chromogenic substrate s2222 (N-benzoyl-Ile-Glu-(OCH3)Gly-Arg-pNa).

aXa = aXa (Homo sapiens, UniProt P00742); assay: aXa-activity, chromogenic substrate s2222; settings: measured after 90 minutes, expressed as molar concentration
Sequence of aXa (P00742 41-179 limits assumed): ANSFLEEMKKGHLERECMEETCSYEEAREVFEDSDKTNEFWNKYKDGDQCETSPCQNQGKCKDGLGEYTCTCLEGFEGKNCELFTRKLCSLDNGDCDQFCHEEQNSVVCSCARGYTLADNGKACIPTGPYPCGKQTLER
Sequence of aXa (P00742 235-488 limits assumed): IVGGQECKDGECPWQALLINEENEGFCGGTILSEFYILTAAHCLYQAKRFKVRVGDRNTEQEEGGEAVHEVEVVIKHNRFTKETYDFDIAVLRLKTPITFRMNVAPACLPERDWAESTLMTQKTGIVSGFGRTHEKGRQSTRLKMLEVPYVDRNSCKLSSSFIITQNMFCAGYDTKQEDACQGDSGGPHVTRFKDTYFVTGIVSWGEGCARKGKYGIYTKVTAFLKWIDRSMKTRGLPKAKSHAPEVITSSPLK
Method: as §1

Factor IIa = molecular target: T1, Factor IIa (Homo sapiens, UniProt P00734); assay: Ki against Factor IIa; settings: called minimum inhibitory concentrations
T1 construct: Ki [M]-Factor IIa

| Structure (SMILES) | IC50 (human thrombin) | IC50 (aXa) | Ki (Factor IIa) |
| --- | --- | --- | --- |
| C[C@H](NC(=O)[C@H](CCCNC(=N)N)NC(=O)[C@@H]1CCCN1C(=O)[C@H](N)Cc1ccccc1)C(=O)N[C@@H](Cc1ccccc1)C(=O)N[C@@H](CCCCN)C(=O)O [H-D-Phe-Pro-Arg-Ala-Phe-Lys-OH] (HELM PEPTIDE1{[dF].P.R.A.F.K}$$$$V2.0) | 110 µM | 3100 µM | – |
| N=C(N)NCCC[C@H](NC(=O)[C@@H]1CCCN1C(=O)[C@H](N)Cc1ccccc1)C(=O)NCC(=O)O [H-D-Phe-Pro-Arg-Gly-OH, reference compound] (HELM PEPTIDE1{[dF].P.R.G}$$$$V2.0) | 4000 µM | 4800 µM | 70 µM |
| N=C(N)NCCC[C@H](NC(=O)[C@@H]1CCCN1C(=O)[C@H](N)Cc1ccccc1)C(=O)NCC(=O)N[C@@H](Cc1ccccc1)C(=O)N[C@@H](CCCCN)C(=O)O [H-D-Phe-Pro-Arg-Gly-Phe-Lys-OH] (HELM PEPTIDE1{[dF].P.R.G.F.K}$$$$V2.0) | 250 µM | 1600 µM | 3.4 µM |
| N=C(N)NCCC[C@H](NC(=O)[C@@H]1CCCN1C(=O)[C@H](N)Cc1ccccc1)C(=O)CCC(=O)O [H-D-Phe-Pro-Arg-psi[COCH2 ]-Gly-OH] | – | – | 26 µM |
| NCCCC[C@H](NC(=O)[C@H](Cc1ccccc1)NC(=O)CCC(=O)[C@H](CCCN=C(N)N)NC(=O)[C@@H]1CCCN1C(=O)[C@H](N)Cc1ccccc1)C(=O)O [H-D-Phe-Pro-Arg-psi[COCH2 ]-Gly-Phe-Lys-OH] (HELM PEPTIDE1{[dF].P.[N=C(N)NCCC[C@H](N[*:1])C(=O)CCC(=O)[*:2]].F.K}$$$$V2.0) | – | – | 0.028 µM |

Continued, values first:

| IC50 (human thrombin) | IC50 (aXa) | Ki (Factor IIa) | Structure (SMILES) |
| --- | --- | --- | --- |
| 410 µM | 1300 µM | 7.6 µM | N=C(N)NCCC[C@H](NC(=O)[C@@H]1CCCN1C(=O)[C@H](N)Cc1ccccc1)C(=O)NCC(=O)N[C@@H](Cc1ccccc1)C(=O)O [H-D-Phe-Pro-Arg-Gly-Phe-OH] (HELM PEPTIDE1{[dF].P.R.G.F}$$$$V2.0) |
| 37 µM | 2100 µM | 0.48 µM | N=C(N)NCCC[C@H](NC(=O)[C@@H]1CCCN1C(=O)[C@H](N)Cc1ccccc1)C(=O)CCC(=O)N[C@@H](Cc1ccccc1)C(=O)O [H-D-Phe-Pro-Arg-psi[COCH2 ]-Gly-Phe-OH] |
